Assay results reported in patent publication US11155546B2, “4,6,7-trisubstituted 1,2-dihydropyrrolo[3,4-c]pyridin/pyrimidin-3-one derivatives and uses thereof” (SHANGHAI HAIYAN PHARMACEUTICAL TECHNOLOGY CO., LTD., priority 2017, dated 2021).
pIC50: −log10 of the molar value.

What was measured:
BTK WT = BTK WT (Homo sapiens (Human), UniProt Q06187); assay: Lantha screening kinase reaction, inhibition of BTK WT; format: biochemical
Protocol: The compound was predissolved in 100% DMSO. 10 mM drug stock solution was obtained by dissolution at room temperature and then serially diluted with 8 vol % DMSO solution to a final concentration of 10-0.005 μM. […] Among the wells, the kinase in the blank well was replaced with a reaction buffer and the kinase well (Enzyme) was not added with any drug. After shaking at 25° C. for 60 minutes in the dark, 10 μl of Detection Solution (mixture of Invitrogen PV3528 and EDTA, which was diluted with TR-FRET dilution buffer, the working concentration of EDTA was 5 mM, the working concentration of Lanthascreening Tb PY20 antibody was 0.2 nM) was added and shaken at room temperature for 30 minutes. The plates were read on a VictorX5 fluorescent plate reader (PerkinElmer) and the light absorption at an excitation wavelength of 340 nm and emission wavelengths of 500 nm and 520 nm was measured.
The calculation method for the inhibition ratio (referring to the specification of Invitrogen, PV3363) was as follows: Emission ratio (ER):Coumarin Emission (520 nm)/Fluorescein Emission (500 nm) 1. The inhibition ratio (IR):(ERkinase−ERtest compound)/(ERkinase−ERblank)×100%. 2.
The half-inhibitory concentration IC50 was calculated by fitting with XLFIT5.0 software (IDBS, UK).

wild-type EGFR kinase = wild-type EGFR kinase (Homo sapiens (Human), UniProt P00533); assay: Wild type EGFR kinase inhibition test (z-lyte); format: biochemical; details: 10 μM ATP; read-out: EGFR WT IC50
wild-type EGFR kinase, sequence (P00533 25-1210): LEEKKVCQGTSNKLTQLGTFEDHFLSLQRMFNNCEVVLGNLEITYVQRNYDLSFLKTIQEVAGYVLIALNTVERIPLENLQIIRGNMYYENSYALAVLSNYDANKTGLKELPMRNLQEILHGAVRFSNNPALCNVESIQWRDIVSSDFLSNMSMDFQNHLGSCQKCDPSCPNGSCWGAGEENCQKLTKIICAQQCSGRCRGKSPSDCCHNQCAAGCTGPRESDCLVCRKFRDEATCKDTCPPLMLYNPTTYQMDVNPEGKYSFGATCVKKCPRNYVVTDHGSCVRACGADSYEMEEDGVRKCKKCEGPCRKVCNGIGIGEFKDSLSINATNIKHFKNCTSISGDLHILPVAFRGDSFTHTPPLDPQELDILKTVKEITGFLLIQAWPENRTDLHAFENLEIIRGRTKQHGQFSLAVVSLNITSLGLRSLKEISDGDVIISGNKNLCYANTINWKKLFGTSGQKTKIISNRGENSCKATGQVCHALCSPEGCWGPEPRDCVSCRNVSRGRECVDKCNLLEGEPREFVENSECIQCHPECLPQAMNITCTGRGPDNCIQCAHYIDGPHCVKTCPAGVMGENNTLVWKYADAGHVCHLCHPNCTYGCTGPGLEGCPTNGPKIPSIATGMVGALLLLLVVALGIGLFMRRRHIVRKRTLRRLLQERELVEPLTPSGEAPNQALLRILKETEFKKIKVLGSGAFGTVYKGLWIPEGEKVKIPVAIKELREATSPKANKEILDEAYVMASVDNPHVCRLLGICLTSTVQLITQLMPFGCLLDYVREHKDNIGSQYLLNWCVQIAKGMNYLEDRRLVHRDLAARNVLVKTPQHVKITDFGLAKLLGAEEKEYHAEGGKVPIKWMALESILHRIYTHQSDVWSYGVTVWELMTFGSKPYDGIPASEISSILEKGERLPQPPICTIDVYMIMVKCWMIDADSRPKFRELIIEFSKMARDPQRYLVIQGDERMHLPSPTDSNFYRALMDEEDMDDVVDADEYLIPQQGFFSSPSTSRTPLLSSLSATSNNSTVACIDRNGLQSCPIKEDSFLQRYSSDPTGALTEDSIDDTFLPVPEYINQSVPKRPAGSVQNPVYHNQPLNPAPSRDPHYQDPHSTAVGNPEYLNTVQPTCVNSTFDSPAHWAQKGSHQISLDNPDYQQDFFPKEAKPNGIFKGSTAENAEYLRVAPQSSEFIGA
Text: All the following reagents used in z-lyte test are commercially available from Invitrogen.
The calculation method for the inhibition ratio (referring to the specification of Invitrogen, PV3363) was as follows: ER=Coumarin Emission(450 nm)/Fluorescein Emission(520 nm) 1. Phosphorylation ratio=(1−((ER×C3520nm−C3450nm)/((C1450nm−C3450nm)+ER×(C3520nm−C1520nm))))×100% 2. Inhibition ratio (IR)=(1−phosphorylation ratio of the test compound)/(phosphorylation ratio of C2))×100% 3.
The half-inhibitory concentration IC50 was calculated by fitting with XLFIT 5.0 software (IDBS, UK).

in vivo = details: male, ICR, mouse, in vivo, po, 30 mg/kg
Protocol: Test Animals: ICR mice, weight 28-30 g, male, totally 12, purchased from SLAC Laboratory Animal Co., Ltd. Mice were fasting one night before administration and freely fed 4 hours after administration.
Administration and Blood collection: 6 mice were administered intragastrically (PO) in a administered dosage of 30 mg/kg and a administered volume of 10 mL/kg. One administration route was subjected with 6 mice, blood samples of three mice were collected at one time point, and blood samples of another three mice were collected at alternate time point alternately. Blood was collected at 8 time points of 0.083, 0.25, 0.5, 1, 2, 4, 8, 24 h after administration respectively.
Animals were manually controlled at the time of collection and approximately 80 μL of blood was collected from the mice fundus venous plexus into a tube containing K2EDTA. The collected blood sample was put on wet ice, centrifuged within 15 min (8000 rpm, 4 min at 4° C.), and then the plasma sample was taken and stored at minus 20° C. till analysis. The compounds were prepared on the day of the experiment.
Solvent excipient information: DMSO (brand: Sigma, batch number: SHBD2446V); 2-hydroxypropyl-3-cyclodextrin (brand: Sigma, batch number: BCBN8227V), acetic acid (brand: Sinopharm Group, batch number: 20150616), sodium acetate (Brand: GENERAL-REAGENT, batch number: P1246037).
Preparation of a 3 mg/mL PO dosing solution: the solvent was a solution of 5% DMSO and 95% PH4.5 (sodium acetate-acetate) in 20% of 2-hydroxypropyl-β-cyclodextrin.
Analytical method: Plasma samples were analyzed by liquid chromatography-tandem mass spectrometry (Instrument type: Triple Quad™ 4000).
Preparation of the standard curve: preparing a standard curve of the test compound 1n the plasma matrix of ICR mice with a linear range of 1.00-3000 ng/mL, and preparing control samples at low, medium and high concentrations of 3 ng/mL, 500 ng/mL, and 2400 ng/mL respectively.
Treatment of biological samples: the frozen plasma samples were thawed on ice, and after the samples were thawed, they were vortexed on a vortex for 5 min. 20 μL of plasma sample was added to a 96-well plate, and 200 μL of acetonitrile (brand: Merck, Lot: 1854029643) containing an internal standard dexamethasone (Brand: NIFDC, Lot: 1N2V-DPGY, 2000 ng/mL) was added to precipitate protein, which were vortexed for 5 min, and then centrifuged at 3700 rpm and 4° C. for 15 min. The supernatant was extracted and twice centrifuged under the same conditions, and finally 2 μL of the supernatant solution was analyzed by LC-MS/MS.

BTK WT, sequence (Q06187 whole entry): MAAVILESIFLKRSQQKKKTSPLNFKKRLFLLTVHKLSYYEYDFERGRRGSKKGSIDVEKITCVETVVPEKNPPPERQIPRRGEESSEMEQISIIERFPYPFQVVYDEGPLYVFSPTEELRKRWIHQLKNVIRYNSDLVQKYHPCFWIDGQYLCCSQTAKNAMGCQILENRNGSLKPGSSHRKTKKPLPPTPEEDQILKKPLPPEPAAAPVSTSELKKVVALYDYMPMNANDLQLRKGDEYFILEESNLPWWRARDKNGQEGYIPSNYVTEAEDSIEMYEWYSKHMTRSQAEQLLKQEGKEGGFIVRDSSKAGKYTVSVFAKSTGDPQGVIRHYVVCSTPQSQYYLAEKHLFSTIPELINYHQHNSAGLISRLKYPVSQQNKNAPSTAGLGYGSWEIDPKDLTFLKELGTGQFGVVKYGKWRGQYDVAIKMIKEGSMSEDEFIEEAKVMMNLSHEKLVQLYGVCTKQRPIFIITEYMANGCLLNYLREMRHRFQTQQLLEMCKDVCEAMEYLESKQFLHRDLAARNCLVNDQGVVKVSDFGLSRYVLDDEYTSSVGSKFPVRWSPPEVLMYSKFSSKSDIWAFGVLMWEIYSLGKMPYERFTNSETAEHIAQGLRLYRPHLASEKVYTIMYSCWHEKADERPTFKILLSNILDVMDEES

Row | SMILES | pIC50 (BTK WT) | pIC50 (wild-type EGFR kinase) | other results
1 | C=CC(=O)N1CCC(Nc2nc(Nc3ccc(OCCOC)cc3)c3c(c2F)CNC3=O)C1 (stereo not drawn) [Compound G-9] | 8.15 | 6.00 | –
2 | C=CC(=O)N1CCCC(Nc2nc(Nc3ccc(OCCO)cc3)c3c(c2F)CNC3=O)C1 (stereo not drawn) [Compound G-16] | 8.70 | 5.56 | –
3 | C=CC(=O)N1CCCC(Nc2nc(Nc3ccc(N4CCN(C)CC4)nc3)c3c(c2F)CNC3=O)C1 (stereo not drawn) [Compound G-18] | 7.39 | 5.80 | –
4 | C=CC(=O)N1CCCC(Nc2nc(Nc3ccc(N4CCC(O)C(C)(C)C4)cn3)c3c(c2F)CNC3=O)C1 (stereo not drawn) [Compound G-21] | 7.23 | 5.08 | –
5 | C=CC(=O)N1CCCC(Nc2nc(Nc3ccc(N4CCN(C5COC5)CC4C)cn3)c3c(c2F)CNC3=O)C1 (stereo not drawn) [Compound G-22] | 7.18 | – | –
6 | C=CC(=O)N1CCCC(Nc2nc(Nc3ccc(C(=O)N4CCOCC4)cc3)c3c(c2F)CNC3=O)C1 (stereo not drawn) [Compound G-24] | 8.30 | 5.75 | –
7 | C=CC(=O)N1CCCC(Nc2nc(Nc3cnn(C)c3)c3c(c2F)CNC3=O)C1 (stereo not drawn) [Compound G-38] | 8.70 | 5.89 | –
8 | C=CC(=O)N1CCCCC(Nc2nc(-c3cnn(C)c3)c3c(c2F)CNC3=O)C1 (stereo not drawn) [Compound G-47] | 7.12 | < 5.00 | –
9 | C=CC(=O)N1CCCC(Nc2nc(-c3cnc(C)s3)c3c(c2F)CNC3=O)C1 (stereo not drawn) [Compound G-53] | 7.29 | 5.13 | –
10 | C=CC(=O)N1CCCC(Nc2nc(-c3cnn(C)c3)c3c(c2F)CNC3=O)C1 (stereo not drawn) [Compound G-54] | 7.82 | < 5.00 | –
11 | C=CC(=O)N1CCCC(Nc2nc3c(c(-c4cnn(C)c4)n2)C(=O)NC3)C1 (stereo not drawn) [Compound G-58, 2-(1-acryloylpiperidin-3-ylamino)-4-(1-methyl-1H-pyrazole-4-yl)-6,7-dihydrogen-5H-pyrrolo[3,4-d]pyrimidine-5(2H)-one] | 7.10 | < 5.00 | –
12 | C=CC(=O)N1CCCC(N(C)c2nc(-c3cnn(CCN4CCOCC4)c3)c3c(c2F)CNC3=O)C1 (stereo not drawn) [Compound G-64, 6-((1-acryloylpiperidin-3-yl)(methyl)amino)-7-fluoro-4-(1-(2-morpholinethyl)-1H-pyrazole-4-yl)-1H-pyrrolo[3,4-c]pyridine-3(2H)-one] | 7.21 | < 5.00 | –
13 | C=CC(=O)N1CC(N(C)c2nc(-c3cnn(C)c3)c3c(c2F)CNC3=O)CCC1C (stereo not drawn) [Compound G-65, 6-((1-acryloyl-6-methylpiperidin-3-yl)(methyl)amino)-7-fluoro-4-(1-methyl-1H-pyrazole-4-yl)-1H-pyrrolo[3,4-c]pyridine-3(2H)-one] | 8.15 | < 5.00 | –
14 | C=CC(=O)N1CCCC(N(C)c2nc(-c3cnc(C)s3)c3c(c2F)CNC3=O)C1 (stereo not drawn) [Compound G-66, 6-((1-acryloylpiperidin-3-yl)(methyl)amino)-7-fluoro-4-(2-methylthiazole-5-yl)-1H-pyrrolo[3,4-c]pyridine-3(2H)-one] | 7.82 | < 5.00 | –
15 | C=CC(=O)N1CCCC(N(C)c2nc(Nc3cnn(C)c3)c3c(c2F)CNC3=O)C1 (stereo not drawn) [Compound G-70, 6-((1-acryloylpiperidin-3-yl)(methyl)amino)-7-fluoro-4-(1-methyl-1H-pyrazole-4-ylamino)-1H-pyrrolo[3,4-c]pyridine-3(2H)-one] | 8.30 | < 5.00 | –
16 | C=CC(=O)N1CCCCC(N(C)c2nc(Nc3ccc(N4CCOCC4)cc3)c3c(c2F)CNC3=O)C1 (stereo not drawn) [Compound G-73, 6-((1-acryloylazacycloheptan-3-yl)(methyl)amino)-7-fluoro-4-(4-morpholin)-1H-pyrrolo[3,4-c]pyridine-3(2H)-one] | 8.30 | 5.81 | –
17 | C=CC(=O)N1CCCC(N(CC)c2nc(Nc3ccc(N4CCOCC4)cc3)c3c(c2F)CNC3=O)C1 (stereo not drawn) [Compound G-74, 6-((1-acryloylpiperidin-3-yl)(ethyl)amino)-7-fluoro-4-(4-morpholin)-1H-pyrrolo[3,4-c]pyridine-3(2H)-one] | 8.15 | 5.86 | –

Row | SMILES | pIC50 (BTK WT) | pIC50 (wild-type EGFR kinase) | other results
18 | C=CC(=O)N1CCCC(N(C)c2nc3c(c(Nc4cnn(C)c4)n2)C(=O)NC3)C1 (stereo not drawn) [Compound G-75, 2-((1-acryloylpiperidin-3-yl)(methyl)amino)-4-(1-methyl-1H-pyrazole-4-ylamino)-6,7-dihydrogen-5H-pyrrolo[3,4-d]pyrimidine-5-one] | 8.22 | 5.79 | –
19 | C=CC(=O)N1CCC2(CCN(c3nc(-c4cnn(C)c4)c4c(c3F)CNC4=O)C2)C1 (stereo not drawn) [Compound G-77] | 7.29 | < 5.00 | –
20 | C=CC(=O)N1CC2CCN(c3nc(Nc4cnn(C)c4)c4c(c3F)CNC4=O)C2C1 (stereo not drawn) [Compound G-84] | 7.05 | < 5.00 | –
21 | C=CC(=O)N1CC2CN(c3nc(-c4cnn(C)c4)c4c(c3F)CNC4=O)CC2C1 (stereo not drawn) [Compound G-89] | 8.30 | – | –
22 | C=CC(=O)N1CCC[C@@H](Nc2nc(Nc3ccc(N4CCN(C5COC5)C[C@@H]4C)c(F)c3)c3c(c2F)CNC3=O)C1 [Compound G-91] | 8.30 | – | AUC (in vivo): 3150 ng·h/mL; Cmax (in vivo): 2910 ng/mL; Tmax (in vivo): 0.25 h; bioavailability (in vivo): 21.3%; half-life (in vivo): 4.7 h
23 | C=CC(=O)N1C[C@H](N(C)c2nc(Nc3ccc(N4CCOCC4)c(F)c3)c3c(c2F)CNC3=O)CC[C@@H]1C [Compound G-92] | 8.10 | – | –
24 | C=CC(=O)N1CCC[C@@H](N(C)c2nc(-c3cnc(C)s3)c3c(c2F)CNC3=O)C1 [Compound G-94] | 7.70 | – | –
25 | C=CC(=O)N1C[C@H](Nc2nc(Nc3ccc(N4CCN(C5COC5)C[C@@H]4C)c(F)c3)c3c(c2F)CNC3=O)CC[C@@H]1C [Compound G-95] | 8.30 | – | –
26 | C=CC(=O)N1CCC[C@@H](Nc2nc(Nc3ccc(CN4CCOCC4)cc3)c3c(c2F)CNC3=O)C1 [Compound G-97] | 8.30 | – | –
27 | C=CC(=O)N1C[C@H](N(C)c2nc(-c3cnn(C)c3)c3c(c2F)CNC3=O)CC[C@H]1C [Compound G-99] | 7.74 | – | –
28 | C=CC(=O)N1CCC[C@@H](Nc2nc(Nc3ccc(N4CCOC[C@@H]4C)cc3F)c3c(c2F)CNC3=O)C1 [Compound G-102] | 8.30 | – | –
29 | C=CC(=O)N1CCC[C@@H](N(C)c2nc(-c3c[nH]c(C)n3)c3c(c2F)CNC3=O)C1 [Compound G-105] | 8.10 | – | –
30 | C=CC(=O)N1CCC[C@@H](Nc2cc3c(c(Nc4ccc(N5CCOCC5)cc4)n2)C(=O)NC3)C1 [Compound G-107] | 8.30 | – | –
31 | C=CC(=O)N1CCC[C@H](Nc2nc(-c3cnn(C)c3)c3c(c2F)CNC3=O)[C@@H]1C [Compound G-109] | 7.21 | 5.17 | –
32 | C=CC(=O)N1CCC[C@H](N(C)c2nc(-c3cnn(C)c3)c3c(c2F)CNC3=O)C1 [Compound G-112] | 7.74 | < 5.00 | –
33 | C=CC(=O)N1CCC[C@@H](N(C)c2nc(-c3cnn(C)c3)c3c(c2F)CNC3=O)C1 [Compound G-113] | 8.30 | 5.21 | –
